Test results as given in US20230009608A1, “GRK2 INHIBITORS AND USES THEREOF” (Cygnal Therapeutics, Inc., priority 2020, published 2023).

The molecules below were run on PAXF1657 control empty vector cell line (assay: 7-day proliferation assay, PAXF1657 control empty vector cell line (Example 9)). Conditions: 168 h; Cell Line: PAXF1657 empty vector (EV) cell line; 7-day; read-out: C: 7-day proliferation assay: IC50 GeoMean.
Assay type: cell-based
Procedure: In order to identify compounds specific for GRK2, we generated two isogenic cell line pairs of the pancreatic cancer cell line PAXF1657, a pair of cells stably overexpressing GRK2 cDNA or the control empty vector and a cell line pair of PAXF1657 GRK2 knockout clonal cells versus non-targeting control clonal cells.
Proliferation Assay: Cellular anti-proliferative activity of compounds was assessed by using the pancreatic cancer cell line, PAXF1657, stably overexpressing GRK2 cDNA or the control empty vector, as well as the parental urinary bladder cancer cell line, 5637. In addition, we also took advantage of GRK2 knockout cell lines that were generated via CRISPR. Cell lines were seeded into tissue culture treated, white-walled, 96-well plates at a density of 500 cells/well in RPMI1640 media supplemented with 10% H.I. FBS and penicillin/streptomycin. Plates were incubated overnight at 37° C., 5% CO2 to allow cells to adhere to the wells. GRK2 inhibitors were added to the cells using a 10-point dilution series with a final concentration ranging from 30 μM-0.0002 μM in 0.3% DMSO. At the time of compound addition, a set of plates, that were not treated with compounds, were collected and cell viability was measured using CellTiter-Glo (Promega). CellTiter-Glo reagent was added to the designed plates and luminescence was measuring using a Biotek Synergy plate reader. The compound treated cells were incubated for 3 days at 37° C., 5% CO2. The media was then aspirated from each well and replaced with fresh media containing GRK2 inhibitors. The compound treated cells were then incubated for an additional 4 days at 37° C., 5% CO2. Cell viability was assessed and at end of the 7-day compound treatment by CellTiterGlo.

Row | Compound | IC50
1 | CC(NC(=O)c1cccc(NCc2nnc(-c3ccncn3)n2C)c1)c1nccn1-c1ccccc1 (stereo not shown) | > 10000 nM
2 | Cn1c(CNc2cccc(C(=O)N[C@H]3c4ccccc4CC[C@H]3O)c2)nnc1-c1ccncn1 | > 10000 nM
3 | Cc1ccnc(C(C)NC(=O)c2cccc(NCc3nnc(-c4ccncn4)n3C)c2)n1 (stereo not shown) | > 10000 nM
4 | O=C(NCCc1ncccn1)c1cccc(NCc2nnc(-c3ccncc3)[nH]2)c1 | > 10000 nM
5 | CCn1nnc(C)c1CNC(=O)c1cccc(NCc2nnc(-c3ccncc3)[nH]2)c1 | 651 nM
6 | Cn1c(CNc2cccc(C(=O)NCc3ccc(-n4cncn4)cc3)c2)nnc1-c1ccncn1 | > 10000 nM
7 | COCCn1nc(C)c(CNC(=O)c2cccc(NCc3nnc(-c4ccncc4)[nH]3)c2)c1C | > 10000 nM
8 | Cn1c(CNc2cccc(C(=O)NC(C)(C)c3ncccn3)c2)nnc1-c1ccncn1 | > 10000 nM
9 | CC(C)n1nccc1CNC(=O)c1cccc(NCc2nnc(-c3ccncn3)n2C)c1 | > 10000 nM
10 | Cn1c(CNc2cccc(C(=O)NCc3ccnc(C(F)(F)F)c3)c2)nnc1-c1ccncn1 | 995 nM
11 | Cn1c(CNc2cccc(C(=O)NC3(c4nccs4)CCCC3)c2)nnc1-c1ccncn1 | > 10000 nM
12 | CCc1cc(CNC(=O)c2cccc(NCc3nnc(-c4ccncn4)n3C)c2)no1 | 3550 nM
13 | O=C(NCc1ccncn1)c1cccc(NCc2nnc(-c3ccncc3)[nH]2)c1 | > 10000 nM
14 | Cn1c(CNc2cccc(C(=O)NC(c3ncccn3)C(C)(C)C)c2)nnc1-c1ccncn1 (stereo not shown) | > 10000 nM
15 | C[C@H](NC(=O)c1cccc(NCc2nnc(-c3ccncc3)[nH]2)c1)c1ccncc1 | > 10000 nM
16 | Cn1c(CNc2cccc(C(=O)NCc3ccccn3)c2)nnc1-c1ccncn1 | > 10000 nM
17 | COc1cnccc1CNC(=O)c1cccc(NCc2nnc(-c3ccncn3)n2C)c1 | > 10000 nM
18 | O=C(NCc1nnc2n1CCCCC2)c1cccc(NCc2nnc(-c3ccncc3)[nH]2)c1 | > 10000 nM
19 | CC(O)C(NC(=O)c1cccc(NCc2nnc(-c3ccncn3)n2C)c1)c1ccccc1 (stereo not shown) | 1760 nM
20 | Cn1c(CNc2cccc(C(=O)NCc3nncn3C3CC3)c2)nnc1-c1ccncn1 | > 10000 nM
21 | Cc1csc(CNC(=O)c2cccc(NCc3nnc(-c4ccncn4)n3C)c2)n1 [drawing 407] | 862 nM
22 | CCOc1ccccc1CNC(=O)c1cccc(NCc2nnc(-c3ccncc3)[nH]2)c1 | > 30000 nM

Row | Compound | IC50
23 | CO[C@H]1C[C@H](CNC(=O)c2cccc(NCc3nnc(-c4ccncc4)[nH]3)c2)C1 | > 10000 nM
24 | CC[C@H](NC(=O)c1cccc(NCc2nnc(-c3ccncn3)n2C)c1)c1ccccn1 | > 10000 nM
25 | Cc1cccc(CNC(=O)c2cccc(NCc3nnc(-c4ccncn4)n3C)c2)n1 | 3920 nM
26 | Cn1c(CNc2cccc(C(=O)NCc3ccn(C4CCCC4)n3)c2)nnc1-c1ccncn1 | > 10000 nM
27 | Cn1c(CNc2cccc(C(=O)NC3(c4ccccn4)CCC3)c2)nnc1-c1ccncn1 | > 10000 nM
28 | Cc1nn(C)c(C)c1CNC(=O)c1cccc(NCc2nnc(-c3ccncc3)[nH]2)c1 | > 10000 nM
29 | O=C(NCc1cccnc1-n1ccnc1)c1cccc(NCc2nnc(-c3ccncc3)[nH]2)c1 | > 10000 nM
30 | Cc1nc(C2(NC(=O)c3cccc(NCc4nnc(-c5ccncn5)n4C)c3)CC2)cs1 | 4740 nM
31 | CC(C)Oc1ncccc1CNC(=O)c1cccc(NCc2nnc(-c3ccncn3)n2C)c1 | 2360 nM
32 | O=C(NCc1nnc2n1CCCC2C(F)(F)F)c1cccc(NCc2nnc(-c3ccncc3)[nH]2)c1 (stereo not shown) | > 10000 nM
33 | CC(C)C(NC(=O)c1cccc(NCc2nnc(-c3ccncn3)n2C)c1)c1nncn1C (stereo not shown) | > 10000 nM
34 | CC(C)n1ncnc1CNC(=O)c1cccc(NCc2nnc(-c3ccncn3)n2C)c1 | > 10000 nM
35 | Cn1c(CNc2cccc(C(=O)NCc3cccc(C(F)(F)F)n3)c2)nnc1-c1ccncn1 | 1860 nM
36 | [2H]C([2H])(Nc1cccc(C(=O)N[C@@H]2CCOc3cccnc32)c1)c1nnc(-c2ccncn2)n1C | 274 nM
37 | [2H]C([2H])(Nc1cccc(C(=O)N[C@@H]2COCc3ccccc32)c1)c1nnc(-c2ccncn2)n1C | 116 nM
38 | Cn1ncnc1CNC(=O)c1cccc(NCc2nnc(-c3ccncc3)[nH]2)c1 | > 10000 nM
39 | Cc1n[nH]cc1CNC(=O)c1cccc(NCc2nnc(-c3ccncc3)[nH]2)c1 | > 10000 nM
40 | CC(C)Cn1nccc1CNC(=O)c1cccc(NCc2nnc(-c3ccncn3)n2C)c1 | 2010 nM
41 | COc1cccc(CNC(=O)c2cccc(NCc3nnc(-c4ccncn4)n3C)c2)c1OC | > 10000 nM
42 | Cn1cc(C(NC(=O)c2cccc(NCc3nnc(-c4ccncn4)n3C)c2)c2ccc(F)cc2)cn1 (stereo not shown) | > 10000 nM
43 | COCC(C)(NC(=O)c1cccc(NCc2nnc(-c3ccncn3)n2C)c1)c1ccccc1 (stereo not shown) | 880 nM

Each molecule was assayed against T1, GRK2 (Homo sapiens, UniProt P25098) (assay: ADPGlo GRK2 Inhibition Assay (Example 8)). Conditions: 7.5 nM GRK2, 10 μM ATP, ADP-Glo; read-out: GRK2 IC50 (nM) (Example 8).
T1 construct: purchased SignalChem A14-10G
T1 sequence (P25098 1-689): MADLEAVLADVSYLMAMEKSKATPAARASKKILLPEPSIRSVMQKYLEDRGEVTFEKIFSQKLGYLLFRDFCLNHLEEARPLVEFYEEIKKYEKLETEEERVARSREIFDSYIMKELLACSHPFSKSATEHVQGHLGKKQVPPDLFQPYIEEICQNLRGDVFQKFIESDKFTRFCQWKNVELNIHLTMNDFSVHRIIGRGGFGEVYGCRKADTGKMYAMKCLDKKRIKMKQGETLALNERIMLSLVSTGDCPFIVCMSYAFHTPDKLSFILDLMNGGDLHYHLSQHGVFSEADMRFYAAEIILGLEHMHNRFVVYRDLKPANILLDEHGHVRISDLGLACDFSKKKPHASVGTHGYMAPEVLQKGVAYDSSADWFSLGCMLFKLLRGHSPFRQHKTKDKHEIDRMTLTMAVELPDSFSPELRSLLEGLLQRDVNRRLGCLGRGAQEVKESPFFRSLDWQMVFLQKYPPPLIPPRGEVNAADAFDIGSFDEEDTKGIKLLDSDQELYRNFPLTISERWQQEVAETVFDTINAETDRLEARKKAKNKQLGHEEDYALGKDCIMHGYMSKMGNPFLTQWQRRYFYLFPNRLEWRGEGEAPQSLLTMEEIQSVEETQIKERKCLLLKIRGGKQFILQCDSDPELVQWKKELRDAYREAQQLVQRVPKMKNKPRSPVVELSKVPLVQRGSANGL
Assay type: biochemical
Procedure: HTS was performed using 1 μM compound.
Compounds were dissolved in 100% DMSO, serially diluted tree-fold from 100 μM concentration to 46 nM and transferred (50 nL) into assay ready plate.
Materials: GRK2 was purchased from SignalChem (Cat #A14-10G, Lot #X^645-3). Substrate GRKtide was from SignalChem (Cat #G46-58, Lot #R339-6). ADP-Glo Kinase Assay from Promega (Cat #V9102). Assay buffer consisted of 25 mMv HEPES (pH7.5), 10 mMv MgCl2, 0.01% Tween-20, 1 mM DDT. 384-well white plates were from Greiner […] (Item #784075).
HTS protocol: Take 384 well plate with 50 nL of compound in columns 3-22/DMSO solution 1-2,23-24. Add 2.5 μL assay buffer to columns 23 and 24 using Thermo Scientific Multidrop Combi Dispenser. Add 2.5 μL of 2× enzyme solution (15 nM in 1× assay buffer) using Thermo Scientific Multidrop Combi Reagent Dispenser to all columns except of 23 and 24. Incubate for 15 minutes. Fill plate with 2.5 μL of 2× substrate mix (20 μM ATP and 0.6 mg/nt GRKtide in Ix assay buffer) using Thermo Scientific Multidrop Combi Reagent Dispenser. Spin 15 seconds at 1000 rpm and incubate for 180 min at room temperature. Add 5 μL ADP-Glo reagent to all the wells. Spin 15 seconds at 1000 rpm and incubate for 40 min at room temperature. Add 10 μL Detection solution to all the wells. Incubate for 30 min at room temperature. Read plate in Luminescent modeon BMG PheraStar FSX (gain=3600).
Data Analysis: Data were analyzed in GraphPad Prism 8.0.2. Each HTS plate contains compounds in columns 3-22, controls (enzyme, no compound) in columns 1 and 2, and blanks (no enzyme) in columns 23 and 24. HTS percent inhibition was calculated for each compound from the signal in luminescence units and the mean of the plate controls and the mean of the plate blanks using the following equation: % Inhibition=100*(1−((signal-blank mean)/(control mean-blank mean))). At the final stage of data processing, we obtain dose-response curves, tables and SDF-files with the results of screening for each substance.

Row | Compound | IC50
44 | Cn1c(CNc2cccc(C(=O)NCc3ccncc3Cl)c2)nnc1-c1ccncn1 [compound 13] | 9.1 nM
45 | Cn1ccnc1C(NC(=O)c1cccc(NCc2nnc(-c3ccncc3)[nH]2)c1)C1CC1 (stereo not shown) [compound 50] | 5.5 nM

Same assay, conditions: ADPGlo GRK2 enzyme assay; read-out: A: Enzymatic GRK2: IC50 (nM) (Example 8)

Row | Compound | IC50
46 | Cc1ccccc1C(CN1CCOCC1)NC(=O)c1cccc(NCc2nnc(-c3ccncn3)n2C)c1 (stereo not shown) | 505 nM
47 | Cn1c(CNc2cccc(C(=O)NCc3ccccc3S(=O)(=O)N3CCCCC3)c2)nnc1-c1ccncn1 | 50.5 nM
48 | Cn1c(CNc2cccc(C(=O)NCc3ccccc3CS(=O)(=O)N3CCCC3)c2)nnc1-c1ccncn1 | 107 nM
49 | Cn1c(CNc2cccc(C(=O)NC3CCCn4nccc43)c2)nnc1-c1ccncn1 (stereo not shown) | 171 nM
50 | Cn1c(CNc2cccc(C(=O)NC3CCn4nccc4C3)c2)nnc1-c1ccncn1 (stereo not shown) | 133 nM
51 | CC(Cc1ccccn1)NC(=O)c1cccc(NCc2nnc(-c3ccncn3)n2C)c1 (stereo not shown) | 290 nM
52 | COc1ccccc1[C@@H](NC(=O)c1cccc(NCc2nnc(-c3ccncn3)n2C)c1)c1noc(C)n1 | 333 nM
53 | Cc1cnc(CCNC(=O)c2cccc(NCc3nnc(-c4ccncn4)n3C)c2)c(C)c1 | 432 nM
54 | Cc1c[nH]c(=O)c(CNC(=O)c2cccc(NCc3nnc(-c4ccncn4)n3C)c2)c1 | > 1000 nM
55 | Cn1c(CNc2cccc(C(=O)NCc3ccccc3OCCN3CCOCC3)c2)nnc1-c1ccncn1 | 145 nM
56 | COc1ccc([C@@H](C)NC(=O)c2cccc(NCc3nnc(-c4ccncn4)n3C)c2)c(OC)c1 | 8.56 nM

Same assay, conditions: Enzyme Assay A, ADPGlo (Example 8); read-out: A: Enzymatic GRK2: IC50 (nM) (Example 8)

Row | Compound | IC50
57 | Cc1cnc(CNC(=O)c2cccc(NCc3nnc(-c4ccncn4)n3C)c2)nc1 | 580 nM
58 | Cn1c(CNc2cccc(C(=O)NC3CCCOc4ccccc43)c2)nnc1-c1ccncn1 (stereo not shown) | 92 nM
